This note sets out measurements from US12595252B2, “Inhibitors of SARM1” (DISARM THERAPEUTICS, INC., priority 2019, dated 2026).

Read-outs that look alike come from different tables or passages of the source. A value given as a limit tells only on which side of the number the result lay.

The test has as its target T1, SARM1 (Homo sapiens, UniProt Q6SZW1).
T1 construct: made in house; host or cells: NRK1-HEK293T cells, transiently transfected; clarified lysate used unpurified
T1 sequence (Q6SZW1 with tags, fused parts or gaps): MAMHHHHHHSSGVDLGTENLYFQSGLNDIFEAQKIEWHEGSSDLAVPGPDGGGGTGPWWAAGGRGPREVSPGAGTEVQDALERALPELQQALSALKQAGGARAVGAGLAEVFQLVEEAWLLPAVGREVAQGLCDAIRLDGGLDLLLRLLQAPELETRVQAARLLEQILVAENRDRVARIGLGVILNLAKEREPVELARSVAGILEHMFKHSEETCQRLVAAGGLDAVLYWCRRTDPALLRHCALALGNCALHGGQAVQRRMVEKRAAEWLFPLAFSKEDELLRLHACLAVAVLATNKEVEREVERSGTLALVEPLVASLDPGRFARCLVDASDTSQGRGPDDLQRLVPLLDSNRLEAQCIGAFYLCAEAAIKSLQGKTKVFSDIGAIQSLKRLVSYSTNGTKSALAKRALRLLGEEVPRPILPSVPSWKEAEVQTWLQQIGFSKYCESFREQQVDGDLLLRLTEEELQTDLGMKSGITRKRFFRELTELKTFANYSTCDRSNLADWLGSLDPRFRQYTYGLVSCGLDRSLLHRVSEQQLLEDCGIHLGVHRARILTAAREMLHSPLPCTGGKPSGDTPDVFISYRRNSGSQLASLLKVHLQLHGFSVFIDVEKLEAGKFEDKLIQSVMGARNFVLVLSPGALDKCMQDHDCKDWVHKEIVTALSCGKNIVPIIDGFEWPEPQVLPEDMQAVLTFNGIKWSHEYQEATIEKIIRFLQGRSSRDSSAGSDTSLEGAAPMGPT
The test can be described thus: ARM-SAM-TIR SARM1 IC50 assay (NADase activity, NAD+ cleavage). Format: biochemical. The procedure:
This Example describes an assay of ARM-SAM-TIR NADase activity and use of this assay to measure the efficacy of compounds of Formula I to block SARM1 mediated NAD+ cleavage. This assay is optimized in such a way as to characterize the efficacy of the compounds in Formula I to inhibit SARM1 activity and to calculate an IC50 value for each compound. This assay makes use of full length SARM1, which encompasses the ARM, SAM and TIR domains.
NRK1-HEK293T cells were seeded onto 150 cm^2 plates at 20×10^6 cells per plate. The next day, the cells were transfected with 15 μg ARM-SAM-TIR expression plasmid, SEQ ID NO: 1.
The cultures were supplemented with 1 mM NR at time of transfection to minimize toxicity from ARM-SAM-TIR overexpression. Forty-eight hours after transfection, cells were harvested, pelleted by centrifugation at 1,000 rpm (Sorvall ST 16R centrifuge, Thermo Fisher), and washed once with cold PBS (0.01 M phosphate buffered saline NaCl 0.138 M; KCl 0.0027 M; pH 7.4). The cells were resuspended in PBS with protease inhibitors (cOmplete™ protease inhibitor cocktail, Roche product #11873580001) and cell lysates were prepared by sonication (Branson Sonifer 450, output=3, 20 episodes of stroke). The lysates were centrifuged (12,000×g for 10 min at 4° C.) to remove cell debris and the supernatants (containing ARM-SAM-TIR protein) were stored at −80° C. for later use in the in vitro ARM-SAM-TIR NADase assay (see below). Protein concentration was determined by the Bicinchoninic (BCA) method and used to normalize lysate concentrations.
The enzymatic assay was performed in a 384-well polypropylene plate in Dulbecco's PBS buffer in a final assay volume of 20 μL. ARM-SAM-TIR lysate with a final concentration of 5 μg/mL was pre-incubated with the respective compound at 1% DMSO final assay concentration over 2 h at room temperature. The reaction was initiated by addition of 5 μM final assay concentration of NAD+ as substrate. After a 2 hr room temperature incubation, the reaction was terminated with 40 μL of stop solution of 7.5% trichloroacetic acid in acetonitrile. The NAD+ and ADPR concentrations were analyzed by a RapidFire High Throughput Mass Spectrometry System (Agilent Technologies, Santa Clara, Calif.) using an API4000 triple quadrupole mass spectrometer (AB Sciex Framingham, Mass.).

Where [1] appears, read: ARM-SAM-TIR lysate 5 μg/mL from NRK1-HEK293T cells, 2 h pre-incubation, 5 μM NAD+, 2 hr room temperature, NAD+ and ADPR by RapidFire MS, read-out: SARM1 IC50.

As to `CCN1CCN(c2cccc(CNc3cncc(OC)n3)c2)CC1` [Example 155], the IC50 under setting [1] was 5 to 15 µM. On the same count and under the same terms, under `COc1cncc(NCc2cnc[nH]2)n1` [Example 61] stands < 5 µM. Regarding `CNc1cncc(OCCCCO)n1` [Example 174], the concentration for half-maximal inhibition (IC50) under setting [1] is < 5 µM. Regarding `CNc1cncc(OC)n1` [Example 152], the IC50 under setting [1] was < 5 µM.

In the case of `NC(=O)c1cncc(NCc2cccnc2)n1` [Example 212], the IC50 under setting [1] is > 30 µM. Still for that read-out and setting: under `CCOc1cncc(NCc2ccc(N3CCN(CC)CC3)nc2)n1` [Example 3] stands 5 to 15 µM; under `CNc1cncc(OCc2ccccc2)n1` [Example 163], 5 to 15 µM. The same measure, in the same setting: under `COc1cc(NCc2cccnc2)cc(=O)[nH]1` [Example 153] stands > 30 µM; under `COc1cncc(NS(=O)(=O)c2cccnc2)n1` [Example 17], > 30 µM; under `CCOc1cncc(NC(=O)c2cccnc2)n1` [Example 191], > 30 µM.

Regarding `CCOc1cncc(NC(=O)c2ccccc2)n1` [Example 192], the half-maximal inhibitory concentration (IC50) under setting [1] is > 30 µM. With `COc1cncc(NCc2ccc(Br)c(C)c2)n1` [Example 100], under setting [1], the IC50 was in the range of 5 to 15 µM. On the same count and under the same terms, under `COc1cnc(C)c(NCc2cccnc2)n1` [Example 204] stands > 30 µM. On the same count and under the same terms, under `COc1cncc(N)c1` [Example 160] stands 15 to 30 µM; under `COc1cnnc(NCc2cccnc2)c1` [Example 94], 15 to 30 µM. Same read-out and setting: under `CCc1cncc(NCc2cccnc2)n1` [Example 138] stands 15 to 30 µM; under `COc1cncc(NCc2cnn(C)c2)n1` [Example 21], 15 to 30 µM. Compound `CCOc1cncc(NCc2ccc(C)nc2)n1` [Example 9] had a half-inhibitory concentration (IC50) of 5 to 15 µM.

For `COc1cc(NCc2cccnc2)[nH]c(=O)c1` [Example 108], the half-maximal inhibitory concentration (IC50) under setting [1] is > 30 µM. On the same count and under the same terms, under `COc1cncc(NCC2CCOCC2)n1` [Example 41] stands > 30 µM; under `COc1cncc(NCc2nccn2C)n1` [Example 51], > 30 µM; under `CCOc1cncc(NCc2cnccn2)n1` [Example 183], > 30 µM. `COc1cncc(NCc2cnco2)n1` [Example 68]: the half-inhibitory concentration (IC50) under setting [1] was in the range of 5 to 15 µM. Consider `CNc1cncc(OCCCCN)n1` [Example 173], for which the 50% inhibitory concentration (IC50) under setting [1] is > 30 µM. Still for that read-out and setting: under `c1ccc(COc2cncc(NCc3cccnc3)n2)cc1` [Example 198] stands > 30 µM. For `c1cncc(CNc2cncc(OCC3CCCC3)n2)c1` [Example 199], the half-maximal inhibitory concentration (IC50) under setting [1] is > 30 µM. Still for that read-out and setting: under `Cn1cc(CNc2cncc(OCC(F)F)n2)cn1` [Example 116] stands 15 to 30 µM. On to `COc1cncc(NCC(O)c2cccc(C(F)(F)F)c2)n1` (stereo not shown) [Example 45], for which the half-inhibitory concentration (IC50) under setting [1] lay in the range of 5 to 15 µM. Consider `COc1cncc(NCc2ccc(OC(F)(F)F)cc2)n1` [Example 143], for which the IC50 under setting [1] was 5 to 15 µM.

Regarding `COCCn1cc(CNc2cncc(OC)n2)cn1` [Example 93], under setting [1], the IC50 was in the range of 5 to 15 µM. For `CNc1nccc(OC)n1` [Example 162], under setting [1], the IC50 was > 30 µM. On the same count and under the same terms, under `COc1cncc(NCc2ccc(N3CCN4CCCC4C3)nc2)n1` (stereo not shown) [Example 131] stands < 5 µM; under `COc1cncc(NCc2cccc(N3CCN(C(=O)OC(C)(C)C)CC3)c2)n1` [Example 123], 5 to 15 µM; under `COc1cncc(N)n1` [Example 159], 15 to 30 µM. The same measure, in the same setting: under `COc1cncc(NCc2ccc(-c3ccncc3)nc2)n1` [Example 141] stands 5 to 15 µM; under `COc1cncc(NCc2ccc(C3CCN(C)CC3)nc2)n1` [Example 125], 5 to 15 µM; under `CCCOc1cncc(NCc2cnn(C)c2)n1` [Example 170], > 30 µM. Consider `CN(C)c1cncc(NCc2cccnc2)n1` [Example 16], for which the IC50 under setting [1] is 15 to 30 µM. The same measure, in the same setting: under `CC(C)Oc1cncc(NCc2cccnc2)n1` [Example 13] stands > 30 µM; under `CCN1CCN(c2ccc(CNc3cnccn3)cc2)CC1` [Example 182], > 30 µM; under `CN(C)Cc1ccc(N2CCN(c3cncc(OCC4CCCC4)n3)CC2)nc1` [Example 2], > 30 µM. The same measure, in the same setting: under `COc1cncc(NCc2ccc(N3CCC(O)CC3)nc2)n1` [Example 80] stands 5 to 15 µM. Consider `Cn1cc(CNc2cncc(OCc3ccccc3)n2)cn1` [Example 115], for which the concentration for half-maximal inhibition (IC50) under setting [1] is > 30 µM. With `COc1cncc(NC(=O)c2ccc3ccc(Cl)cc3n2)n1` [Example 46], the 50% inhibitory concentration (IC50) under setting [1] was > 30 µM.

Consider `COc1cncc(NCc2cccnc2)n1` [Example 12], for which the 50% inhibitory concentration (IC50) under setting [1] lay in the range of 5 to 15 µM. Consider `COc1cncc(C(=O)NCc2cccnc2)n1` [Example 24], for which the half-maximal inhibitory concentration (IC50) under setting [1] is > 30 µM. As to `CCNC(=O)n1cc(CNc2cncc(OC)n2)cn1` [Example 149], the IC50 under setting [1] was 5 to 15 µM. The same measure, in the same setting: under `COc1cncc(NCc2ccc(C(C)(C)O)cc2)n1` [Example 144] stands 5 to 15 µM.

As for `COc1cncc(NCCCc2ccccc2)n1` [Example 33], the IC50 under setting [1] is 5 to 15 µM.

Turning to `COc1cncc(NCc2cccc(N3CCNCC3)c2)n1` [Example 126], under setting [1], the IC50 lay in the range of 5 to 15 µM. Still for that read-out and setting: under `COc1cncc(NCc2ccc(N3CCN(C(=O)OC(C)(C)C)CC3)nc2)n1` [Example 132] stands 5 to 15 µM; under `Clc1cncc(OCc2cccnc2)n1` [Example 189], > 30 µM. On to `COc1cncc(NCc2cccc(C(N)=O)c2)n1` [Example 65], for which the half-inhibitory concentration (IC50) under setting [1] is 5 to 15 µM.

On to `COc1cncc(NCc2cnc3ccccc3c2)n1` [Example 26], for which the IC50 under setting [1] lay within 5 to 15 µM. Take `CCOc1cncc(NCc2ccccc2)n1` [Example 10]: the IC50 under setting [1] lay in the range of 15 to 30 µM. For the compound `COc1cc(NC(=O)c2cnccn2)cnn1` [Example 137], the 50% inhibitory concentration (IC50) under setting [1] is > 30 µM. Still for that read-out and setting: under `COc1cncc(N(C)S(=O)(=O)c2ccccc2)c1` [Example 208] stands > 30 µM; under `COc1cncc(N(C)Cc2cccnc2)n1` [Example 202], > 30 µM; under `Cn1cc(CNc2cncc(O)n2)cn1` [Example 214], > 30 µM. As for `COc1cncc(NCc2cnn(C3CCN(C(C)=O)CC3)c2)n1` [Example 134], under setting [1], the IC50 was 15 to 30 µM. In the case of `COc1cncc(NCc2cnn(C3CCN(S(C)(=O)=O)CC3)c2)n1` [Example 107], the IC50 under setting [1] was 5 to 15 µM.

For `Clc1cncc(NCc2cccnc2)n1` [Example 187], the half-inhibitory concentration (IC50) under setting [1] was > 30 µM. In the case of `COc1cncc(NCc2cnn(C3CCNCC3)c2)n1` [Example 105], the IC50 under setting [1] was < 5 µM. Regarding `COc1cncc(NCc2ccc(-c3nnco3)cc2)n1` [Example 146], the concentration for half-maximal inhibition (IC50) under setting [1] lay within 5 to 15 µM. Consider `COc1ncc(NCc2cccnc2)nc1OC` [Example 43], for which the 50% inhibitory concentration (IC50) under setting [1] fell in the range of 15 to 30 µM. As for `COc1cccc(CNc2cncc(OC)n2)c1` [Example 37], under setting [1], the concentration for half-maximal inhibition (IC50) lay within 5 to 15 µM. Same read-out and setting: under `COc1cncc(NCc2cncc3ccccc23)n1` [Example 27] stands 5 to 15 µM; under `COc1cncc(S(=O)(=O)NCc2ccccc2)c1` [Example 207], > 30 µM. Same read-out and setting: under `COc1cncc(NCC2CCOC2)n1` (stereo not shown) [Example 50] stands 15 to 30 µM; under `COc1cncc(NCc2ccn(C)c(=O)c2)n1` [Example 157], 15 to 30 µM; under `COc1nc(NCc2cccnc2)cnc1C` [Example 35], 5 to 15 µM. On to `COC(=O)c1ccc(CNc2cncc(OC)n2)cc1` [Example 67], for which the IC50 under setting [1] was 5 to 15 µM.

`COc1cncc(NCc2cnn(C3CCN(C)CC3)c2)n1` [Example 119]: under setting [1], the IC50 was < 5 µM.

What is called IC50 is the midpoint of a concentration-inhibition curve.
